Measurements reported in the NIST ThermoML archive (doi:10.1016/j.fluid.2018.05.028).
Numbers after ± are expanded uncertainties.

Test: xn = mol fraction of the nth substance listed
Settings: 101 kPa, Liquid; for viscosity: Concentric cylinders viscometry; for speed of sound: Single path-length method; for mass density: Vibrating tube method

CCCCCCCC/C=C\CCCCCCCC(=O)OCC [ethyl (Z)-9-octadeceneoate] + CCCO
Settings	mass density [kg/m3]	speed of sound [m/s]	viscosity [mPa·s]
293.15 K, x2 = 0	868.91 ± 1	1394.2 ± 2	6.413 ± 0.068
293.15 K, x2 = 0.1	867.29 ± 0.97	1389.8 ± 1.9	6.028 ± 0.06
293.15 K, x2 = 0.2	865.42 ± 0.93	1384.1 ± 1.7	5.695 ± 0.053
293.15 K, x2 = 0.3	863.2 ± 0.9	1377.6 ± 1.6	5.368 ± 0.046
293.15 K, x2 = 0.4	860.5 ± 0.87	1370 ± 1.4	5.016 ± 0.04
293.15 K, x2 = 0.5	857.13 ± 0.85	1360.7 ± 1.3	4.643 ± 0.034
293.15 K, x2 = 0.6	852.82 ± 0.84	1349.2 ± 1.1	4.238 ± 0.029
293.15 K, x2 = 0.7	846.96 ± 0.82	1333.8 ± 0.96	3.8 ± 0.024
293.15 K, x2 = 0.8	838.72 ± 0.82	1312.4 ± 0.81	3.299 ± 0.02
293.15 K, x2 = 0.9	826.05 ± 0.81	1279 ± 0.67	2.748 ± 0.016
298.15 K, x2 = 0	865.27 ± 1	1376.2 ± 2	5.653 ± 0.06
298.15 K, x2 = 0.1	863.62 ± 0.97	1371.8 ± 1.9	5.318 ± 0.053
298.15 K, x2 = 0.2	861.71 ± 0.93	1366.1 ± 1.7	5.028 ± 0.047
298.15 K, x2 = 0.3	859.46 ± 0.9	1359.7 ± 1.6	4.736 ± 0.041
298.15 K, x2 = 0.4	856.73 ± 0.87	1352 ± 1.4	4.427 ± 0.036
298.15 K, x2 = 0.5	853.33 ± 0.85	1342.7 ± 1.3	4.102 ± 0.031
298.15 K, x2 = 0.6	848.98 ± 0.84	1331.2 ± 1.1	3.742 ± 0.026
298.15 K, x2 = 0.7	843.08 ± 0.82	1315.9 ± 0.96	3.357 ± 0.022
298.15 K, x2 = 0.8	834.8 ± 0.82	1294.6 ± 0.81	2.93 ± 0.018
298.15 K, x2 = 0.9	822.08 ± 0.81	1261.3 ± 0.67	2.455 ± 0.015
303.15 K, x2 = 0	861.63 ± 1	1358.4 ± 2	4.986 ± 0.053
303.15 K, x2 = 0.1	859.95 ± 0.97	1353.9 ± 1.9	4.693 ± 0.047
303.15 K, x2 = 0.2	858.01 ± 0.93	1348.3 ± 1.7	4.435 ± 0.042
303.15 K, x2 = 0.3	855.72 ± 0.89	1341.8 ± 1.6	4.183 ± 0.037
303.15 K, x2 = 0.4	852.96 ± 0.87	1334.2 ± 1.4	3.915 ± 0.032
303.15 K, x2 = 0.5	849.52 ± 0.85	1324.8 ± 1.3	3.629 ± 0.028
303.15 K, x2 = 0.6	845.14 ± 0.84	1313.4 ± 1.1	3.312 ± 0.024
303.15 K, x2 = 0.7	839.19 ± 0.82	1298.1 ± 0.96	2.98 ± 0.02
303.15 K, x2 = 0.8	830.87 ± 0.82	1276.9 ± 0.81	2.603 ± 0.017
303.15 K, x2 = 0.9	818.09 ± 0.81	1243.8 ± 0.67	2.186 ± 0.014
308.15 K, x2 = 0	858.01 ± 1	1340.8 ± 2	4.424 ± 0.048
308.15 K, x2 = 0.1	856.28 ± 0.97	1336.3 ± 1.9	4.167 ± 0.042
308.15 K, x2 = 0.2	854.3 ± 0.93	1330.6 ± 1.7	3.94 ± 0.037
308.15 K, x2 = 0.3	851.98 ± 0.89	1324.2 ± 1.6	3.719 ± 0.033
308.15 K, x2 = 0.4	849.18 ± 0.87	1316.5 ± 1.4	3.482 ± 0.029
308.15 K, x2 = 0.5	845.71 ± 0.85	1307.2 ± 1.3	3.23 ± 0.025
308.15 K, x2 = 0.6	841.28 ± 0.84	1295.7 ± 1.1	2.956 ± 0.021
308.15 K, x2 = 0.7	835.29 ± 0.83	1280.4 ± 0.96	2.657 ± 0.018
308.15 K, x2 = 0.8	826.92 ± 0.82	1259.4 ± 0.81	2.324 ± 0.015
308.15 K, x2 = 0.9	814.08 ± 0.81	1226.5 ± 0.67	1.955 ± 0.013
313.15 K, x2 = 0	854.39 ± 1	1323.3 ± 2	3.919 ± 0.042
313.15 K, x2 = 0.1	852.62 ± 0.96	1318.8 ± 1.9	3.697 ± 0.038
313.15 K, x2 = 0.2	850.61 ± 0.93	1313.1 ± 1.7	3.497 ± 0.033
313.15 K, x2 = 0.3	848.24 ± 0.89	1306.6 ± 1.6	3.305 ± 0.03
313.15 K, x2 = 0.4	845.4 ± 0.87	1299 ± 1.4	3.1 ± 0.026
313.15 K, x2 = 0.5	841.89 ± 0.85	1289.6 ± 1.3	2.882 ± 0.023
313.15 K, x2 = 0.6	837.41 ± 0.84	1278.2 ± 1.1	2.645 ± 0.02
313.15 K, x2 = 0.7	831.37 ± 0.83	1262.9 ± 0.96	2.384 ± 0.017
313.15 K, x2 = 0.8	822.94 ± 0.82	1241.9 ± 0.81	2.09 ± 0.015
313.15 K, x2 = 0.9	810.04 ± 0.81	1209.2 ± 0.67	1.76 ± 0.013
318.15 K, x2 = 0	850.78 ± 1	1306 ± 2	3.554 ± 0.039
318.15 K, x2 = 0.1	848.97 ± 0.96	1301.4 ± 1.9	3.354 ± 0.034
318.15 K, x2 = 0.2	846.91 ± 0.92	1295.7 ± 1.7	3.171 ± 0.031
318.15 K, x2 = 0.3	844.5 ± 0.89	1289.2 ± 1.6	2.996 ± 0.027
318.15 K, x2 = 0.4	841.62 ± 0.87	1281.6 ± 1.4	2.808 ± 0.024
318.15 K, x2 = 0.5	838.06 ± 0.85	1272.1 ± 1.3	2.606 ± 0.021
318.15 K, x2 = 0.6	833.53 ± 0.84	1260.7 ± 1.1	2.388 ± 0.018
318.15 K, x2 = 0.7	827.44 ± 0.83	1245.5 ± 0.96	2.147 ± 0.016
318.15 K, x2 = 0.8	818.94 ± 0.82	1224.5 ± 0.81	1.882 ± 0.014
318.15 K, x2 = 0.9	805.97 ± 0.81	1191.9 ± 0.67	1.584 ± 0.012
323.15 K, x2 = 0	847.17 ± 1	1288.9 ± 2	3.214 ± 0.035
323.15 K, x2 = 0.1	845.32 ± 0.96	1284.2 ± 1.9	3.036 ± 0.031
323.15 K, x2 = 0.2	843.22 ± 0.92	1278.4 ± 1.7	2.871 ± 0.028
323.15 K, x2 = 0.3	840.76 ± 0.89	1272 ± 1.6	2.712 ± 0.025
323.15 K, x2 = 0.4	837.83 ± 0.87	1264.2 ± 1.4	2.542 ± 0.022
323.15 K, x2 = 0.5	834.21 ± 0.85	1254.8 ± 1.3	2.36 ± 0.019
323.15 K, x2 = 0.6	829.63 ± 0.84	1243.3 ± 1.1	2.163 ± 0.017
323.15 K, x2 = 0.7	823.48 ± 0.83	1228.1 ± 0.96	1.945 ± 0.015
323.15 K, x2 = 0.8	814.91 ± 0.82	1207.2 ± 0.81	1.704 ± 0.013
323.15 K, x2 = 0.9	801.87 ± 0.81	1174.8 ± 0.67	1.433 ± 0.011
328.15 K, x2 = 0	843.58 ± 1	1271.9 ± 2	2.921 ± 0.032
328.15 K, x2 = 0.1	841.67 ± 0.96	1267.1 ± 1.9	2.762 ± 0.029
328.15 K, x2 = 0.2	839.52 ± 0.92	1261.3 ± 1.7	2.612 ± 0.026
328.15 K, x2 = 0.3	837.01 ± 0.89	1254.8 ± 1.6	2.467 ± 0.023
328.15 K, x2 = 0.4	834.04 ± 0.87	1247.1 ± 1.4	2.312 ± 0.02
328.15 K, x2 = 0.5	830.37 ± 0.85	1237.6 ± 1.3	2.146 ± 0.018
328.15 K, x2 = 0.6	825.72 ± 0.84	1226.1 ± 1.1	1.969 ± 0.016
328.15 K, x2 = 0.7	819.5 ± 0.83	1210.8 ± 0.96	1.768 ± 0.014
328.15 K, x2 = 0.8	810.86 ± 0.82	1190 ± 0.81	1.55 ± 0.012
328.15 K, x2 = 0.9	797.72 ± 0.81	1157.7 ± 0.67	1.301 ± 0.011
333.15 K, x2 = 0	839.98 ± 1	1255.2 ± 2	2.643 ± 0.029
333.15 K, x2 = 0.1	838.03 ± 0.96	1250.2 ± 1.9	2.502 ± 0.026
333.15 K, x2 = 0.2	835.83 ± 0.92	1244.3 ± 1.7	2.366 ± 0.024
333.15 K, x2 = 0.3	833.26 ± 0.89	1237.8 ± 1.6	2.236 ± 0.021
333.15 K, x2 = 0.4	830.24 ± 0.87	1230 ± 1.4	2.098 ± 0.019
333.15 K, x2 = 0.5	826.5 ± 0.85	1220.5 ± 1.3	1.948 ± 0.017
333.15 K, x2 = 0.6	821.79 ± 0.84	1208.9 ± 1.1	1.792 ± 0.015
333.15 K, x2 = 0.7	815.49 ± 0.83	1193.6 ± 0.96	1.611 ± 0.013
333.15 K, x2 = 0.8	806.76 ± 0.82	1172.8 ± 0.81	1.413 ± 0.012
333.15 K, x2 = 0.9	793.52 ± 0.81	1140.6 ± 0.67	1.185 ± 0.011
338.15 K, x2 = 0	836.39 ± 1	1238.6 ± 2	2.448 ± 0.028
338.15 K, x2 = 0.1	834.39 ± 0.96	1233.4 ± 1.9	2.317 ± 0.025
338.15 K, x2 = 0.2	832.14 ± 0.92	1227.5 ± 1.7	2.191 ± 0.022
338.15 K, x2 = 0.3	829.51 ± 0.89	1220.9 ± 1.6	2.069 ± 0.02
338.15 K, x2 = 0.4	826.42 ± 0.87	1213 ± 1.4	1.938 ± 0.018
338.15 K, x2 = 0.5	822.62 ± 0.85	1203.5 ± 1.3	1.796 ± 0.016
338.15 K, x2 = 0.6	817.84 ± 0.84	1191.8 ± 1.1	1.649 ± 0.014
338.15 K, x2 = 0.7	811.45 ± 0.83	1176.5 ± 0.96	1.477 ± 0.013
338.15 K, x2 = 0.8	802.63 ± 0.82	1155.6 ± 0.81	1.294 ± 0.011
338.15 K, x2 = 0.9	789.27 ± 0.82	1123.5 ± 0.67	1.08 ± 0.01
343.15 K, x2 = 0	832.81 ± 1	1222.5 ± 2	2.254 ± 0.026
343.15 K, x2 = 0.1	830.76 ± 0.96	1216.9 ± 1.9	2.135 ± 0.023
343.15 K, x2 = 0.2	828.45 ± 0.92	1210.9 ± 1.7	2.018 ± 0.021
343.15 K, x2 = 0.3	825.76 ± 0.89	1204.2 ± 1.6	1.905 ± 0.019
343.15 K, x2 = 0.4	822.6 ± 0.87	1196.2 ± 1.4	1.784 ± 0.017
343.15 K, x2 = 0.5	818.73 ± 0.85	1186.6 ± 1.3	1.65 ± 0.015
343.15 K, x2 = 0.6	813.87 ± 0.84	1174.9 ± 1.1	1.515 ± 0.013
343.15 K, x2 = 0.7	807.39 ± 0.83	1159.5 ± 0.96	1.354 ± 0.012
343.15 K, x2 = 0.8	798.46 ± 0.82	1138.5 ± 0.81	1.185 ± 0.011
343.15 K, x2 = 0.9	784.97 ± 0.82	1106.3 ± 0.67	0.9873 ± 0.01
